Values after ≈ are worked out from the molar mass of the structure shown. *1 amine or outer side, *2 acyl side, *3 side chain or, on linkers, in order; H or OH if unused. Where a SMILES comes first, the peptide text is derived from it. Bridges are numbered along the chain shown (N, C = ends). [ ]: non-standard residue; d: D form. Nle(6-ylidene) = O=C([C@H](CCCC=[*:3])N[*:1])[*:2]; S5 = C=CCCC[C@](C)(N)C(=O)O
Legend:
[1] = Drug metabolism assessed as trypsin (unknown origin)-mediated digestion by measuring half life at 0.09 uM by HPLC analysis; format: ADME; conditions: human
Escherichia coli = test: Antibacterial activity against Escherichia coli ATCC 25922 assessed as growth inhibition after 24 hrs by broth microdilution method; format: functional; conditions: ATCC 25922, 24 h
[2] = Drug metabolism assessed as trypsin (unknown origin)-mediated digestion by measuring compound remaining at 0.09 uM after 60 mins by HPLC analysis; format: ADME; conditions: human, read-out: Stability
[3] = system: Staphylococcus epidermidis; test: Antibacterial activity against Staphylococcus epidermidis ATCC 12228 assessed as growth inhibition after 24 hrs by broth microdilution method; format: functional; conditions: ATCC 12228, 24 h
Klebsiella pneumoniae = test: Antibacterial activity against Klebsiella pneumoniae ATCC 10031 assessed as growth inhibition after 24 hrs by broth microdilution method; format: functional; conditions: ATCC 10031, 24 h
Pseudomonas aeruginosa = test: Antibacterial activity against Pseudomonas aeruginosa ATCC 27853 assessed as growth inhibition after 24 hrs by broth microdilution method; format: functional; conditions: ATCC 27853, 24 h
Salmonella typhimurium = test: Antibacterial activity against Salmonella typhimurium ATCC 14028 assessed as growth inhibition after 24 hrs by broth microdilution method; format: functional, Salmonella enterica subsp. enterica serovar Typhimurium; conditions: Salmonella enterica, ATCC 14028, 24 h
Bacillus spizizenii = test: Antibacterial activity against Bacillus subtilis ATCC 6633 assessed as growth inhibition after 24 hrs by broth microdilution method; format: functional; conditions: ATCC 6633, 24 h
Shigella dysenteriae = test: Antibacterial activity against Shigella dysenteriae ATCC 9752 assessed as growth inhibition after 24 hrs by broth microdilution method; format: functional; conditions: ATCC 9752, 24 h
Proteus mirabilis = test: Antibacterial activity against Proteus mirabilis ATCC 25933 assessed as growth inhibition after 24 hrs by broth microdilution method; format: functional; conditions: ATCC 25933, 24 h
Staphylococcus aureus = test: Antibacterial activity against Staphylococcus aureus ATCC 6538p assessed as growth inhibition after 24 hrs by broth microdilution method; format: functional
[4] = Drug metabolism assessed as trypsin (unknown origin)-mediated digestion at 0.09 uM after 15 mins by HPLC analysis; format: ADME; conditions: human, 0.25 h

CC(=O)N[C@H](C(=O)N[C@@H](CC(C)C)C(=O)N[C@@H](CCCCN)C(=O)N[C@@H](CCC(N)=O)C(=O)N[C@@H](Cc1ccccc1)C(=O)N[C@@]1(C)CCC/C=C\CCC[C@@H](C(=O)N[C@@H](CCCCN)C(=O)N[C@@H](Cc2c[nH]c3ccccc23)C(=O)N[C@@H](CC(C)C)C(=O)N[C@H](C(=O)N[C@@H](CCCCN)C(N)=O)C(C)C)NC(=O)[C@H](C(C)C)NC(=O)CNC(=O)[C@H](CCCCN)NC1=O)[C@@H](C)O (Ac-TLKQF[S5]KGV[Nle(6-ylidene)]KWLVK-NH2; staple (Z) 6-10)
half-life at 0.09 µM [1]: 1.2 h
MIC (Escherichia coli): > 200 µg/mL
remaining at 1 h, 0.09 µM [2]: > 90%
MIC [3]: > 200 µg/mL
MIC (Klebsiella pneumoniae): > 200 µg/mL
MIC (Pseudomonas aeruginosa): > 200 µg/mL
MIC (Salmonella typhimurium): > 200 µg/mL
MIC (Bacillus spizizenii): 3.13 µg/mL (≈ 1.69 µM)
MIC (Shigella dysenteriae): > 200 µg/mL
MIC (Proteus mirabilis): > 200 µg/mL
MIC (Staphylococcus aureus): 3.13 µg/mL (≈ 1.69 µM)

CC(=O)N[C@H](C(=O)N[C@@H](CC(C)C)C(=O)N[C@@H](CCCCN)C(=O)N[C@@H](CCC(N)=O)C(=O)N[C@@H](Cc1ccccc1)C(=O)N[C@@]1(C)CCC/C=C\CCC[C@@H](C(=O)N[C@@H](CCCCN)C(=O)N[C@@H](CC(=O)O)C(=O)N[C@@H](CC(C)C)C(=O)N[C@H](C(=O)N[C@@H](CCCCN)C(N)=O)C(C)C)NC(=O)[C@H](Cc2c[nH]c3ccccc23)NC(=O)CNC(=O)[C@H](CCCCN)NC1=O)[C@@H](C)O (Ac-TLKQF[S5]KGW[Nle(6-ylidene)]KDLVK-NH2; staple (Z) 6-10)
half-life at 0.09 µM [1]: 0.617 h
MIC (Escherichia coli): 100 µg/mL (≈ 53.5 µM)
remaining at 1 h, 0.09 µM [2]: 75%
MIC [3]: > 200 µg/mL
MIC (Klebsiella pneumoniae): 50 µg/mL (≈ 26.8 µM)
MIC (Pseudomonas aeruginosa): 200 µg/mL (≈ 107 µM)
MIC (Salmonella typhimurium): > 200 µg/mL
MIC (Bacillus spizizenii): 6.25 µg/mL (≈ 3.35 µM)
MIC (Shigella dysenteriae): 50 µg/mL (≈ 26.8 µM)
MIC (Proteus mirabilis): > 200 µg/mL
MIC (Staphylococcus aureus): 6.25 µg/mL (≈ 3.35 µM)

CC(=O)N[C@H](C(=O)N[C@@H](CC(C)C)C(=O)N[C@@H](CCCCN)C(=O)N[C@@H](CCC(N)=O)C(=O)N[C@@H](Cc1c[nH]c2ccccc12)C(=O)N[C@@]1(C)CCC/C=C\CCC[C@@H](C(=O)N[C@@H](CCCCN)C(=O)N[C@@H](CC(=O)O)C(=O)N[C@@H](CC(C)C)C(=O)N[C@H](C(=O)N[C@@H](CCCCN)C(N)=O)C(C)C)NC(=O)[C@H](C(C)C)NC(=O)CNC(=O)[C@H](CCCCN)NC1=O)[C@@H](C)O (Ac-TLKQW[S5]KGV[Nle(6-ylidene)]KDLVK-NH2; staple (Z) 6-10)
half-life at 0.09 µM [1]: 1.18 h
MIC (Escherichia coli): 100 µg/mL (≈ 54.9 µM)
remaining at 1 h, 0.09 µM [2]: > 90%
MIC [3]: 100 µg/mL (≈ 54.9 µM)
MIC (Klebsiella pneumoniae): 50 µg/mL (≈ 27.5 µM)
MIC (Pseudomonas aeruginosa): > 200 µg/mL
MIC (Salmonella typhimurium): > 200 µg/mL
MIC (Bacillus spizizenii): 6.25 µg/mL (≈ 3.43 µM)
MIC (Shigella dysenteriae): 50 µg/mL (≈ 27.5 µM)
MIC (Proteus mirabilis): > 200 µg/mL
MIC (Staphylococcus aureus): 6.25 µg/mL (≈ 3.43 µM)

Ac-GILDTLKQFAKGVGKWLVKGAAQ-NH2
MIC (Escherichia coli): > 200 µg/mL
MIC [3]: > 200 µg/mL
Drug metabolism [4]: Active
MIC (Klebsiella pneumoniae): > 200 µg/mL
MIC (Pseudomonas aeruginosa): > 200 µg/mL
MIC (Salmonella typhimurium): > 200 µg/mL
MIC (Bacillus spizizenii): 50 µg/mL
MIC (Shigella dysenteriae): > 200 µg/mL
MIC (Proteus mirabilis): > 200 µg/mL
MIC (Staphylococcus aureus): 100 µg/mL

Ac-TLKQFAKGVGKWLVK-NH2
MIC (Escherichia coli): 200 µg/mL
MIC [3]: > 200 µg/mL
Drug metabolism [4]: Active
MIC (Klebsiella pneumoniae): > 200 µg/mL
MIC (Pseudomonas aeruginosa): > 200 µg/mL
MIC (Salmonella typhimurium): > 200 µg/mL
MIC (Bacillus spizizenii): 200 µg/mL
MIC (Shigella dysenteriae): > 200 µg/mL
MIC (Proteus mirabilis): > 200 µg/mL
MIC (Staphylococcus aureus): 100 µg/mL
